Measured values taken from patent US10770169B2, “Method of providing a treatment to a subject based on a dynamic pathway map” (THE REGENTS OF THE UNIVERSITY OF CALIFORNIA, priority 2010, dated 2020).

Tested on: panel of 55 breast cancer cell lines
Assay: Cell growth inhibition assay (Cell Titer Glo, 72 h, 9 doses; GI50, TGI, LC50)
Assay type: cell-based, human
Conditions: value is the negative log10 of mol/L
[1] = BT20 cell line, censored GI50 values
[2] = BT483 cell line, censored GI50 values
[3] = HCC1187 cell line, censored GI50 values
[4] = HCC2185 cell line, censored GI50 values
[5] = SUM52PE cell line, censored GI50 values
[6] = SUM149PT cell line, censored GI50 values
[7] = SUM185PE cell line, censored GI50 values
[8] = ZR751 cell line, censored GI50 values

For `CC(C)[C@H](CO)Nc1nc(Nc2cccc(Cl)c2)c2ncn(C(C)C)c2n1` [Purvalanol A], the GI50 (600MPE cell line, censored GI50 values) was 4.52, the GI50 (AU565 cell line, censored GI50 values) was 5.01 and the GI50 [1] was 4.56. For the same molecule, the GI50 [2] was 4.40, the GI50 (HCC202 cell line, censored GI50 values) was 3.99 and the GI50 [3] was 4.74. It also gave a GI50 (HCC1428 cell line, censored GI50 values) of 4.44, a GI50 (HCC1806 cell line, censored GI50 values) of 4.00 and a GI50 (HCC1937 cell line, censored GI50 values) of 4.97. For the same molecule, the GI50 (HCC1954 cell line, censored GI50 values) was 4.43, the GI50 [4] was 4.57 and the GI50 (MCF7 cell line, censored GI50 values) was 4.80. The GI50 (MDAMB134VI cell line, censored GI50 values) was 4.26, the GI50 (MDAMB175VII cell line, censored GI50 values) was 4.46 and the GI50 (MDAMB468 cell line, censored GI50 values) was 4.12. It also gave a GI50 (SKBR3 cell line, censored GI50 values) of 4.60, a GI50 [5] of 4.79 and a GI50 [6] of 4.88. The GI50 [7] was 4.69, the GI50 (SUM225CWN cell line, censored GI50 values) was 4.28 and the GI50 (SUM1315MO2 cell line, censored GI50 values) was 5.09. It also gave a GI50 [8] of 4.01, a GI50 (cell line 600MPE) of 4.52 and a GI50 (cell line AU565) of 5.01. The GI50 (cell line BT20) was 4.56, the GI50 (cell line BT474) was 3.78 and the GI50 (cell line BT483) was 4.40. For the same molecule, the GI50 (cell line BT549) was 3.78, the GI50 (cell line CAMA1) was 3.86 and the GI50 (cell line HCC70) was 3.78. The GI50 (cell line HCC202) was 3.99, the GI50 (cell line HCC1143) was 3.78 and the GI50 (cell line HCC1187) was 4.74. The GI50 (cell line HCC1395) was 3.78, the GI50 (cell line HCC1419) was 3.78 and the GI50 (cell line HCC1428) was 4.44. It also gave a GI50 (cell line HCC1500) of 3.95, a GI50 (cell line HCC1806) of 4.00 and a GI50 (cell line HCC1937) of 4.97. For the same molecule, the GI50 (cell line HCC1954) was 4.43, the GI50 (cell line HCC2185) was 4.57 and the GI50 (cell line HCC3153) was 3.83. The GI50 (cell line MCF7) was 4.80, the GI50 (cell line MDAMB134V) was 4.26 and the GI50 (cell line MDAMB157) was 3.78. It also gave a GI50 (cell line MDAMB175V) of 4.46, a GI50 (cell line MDAMB231) of 3.78 and a GI50 (cell line MDAMB361) of 3.78. It also gave a GI50 (cell line MDAMB436) of 3.78, a GI50 (cell line MDAMB468) of 4.12 and a GI50 (cell line SKBR3) of 4.60. The GI50 (cell line SUM52PE) was 4.79, the GI50 (cell line SUM149PT) was 4.88 and the GI50 (cell line SUM159PT) was 3.78. It also gave a GI50 (cell line SUM185PE) of 4.69, a GI50 (cell line SUM225CWN) of 4.28 and a GI50 (cell line SUM1315MO) of 5.09. The GI50 (cell line T47D) was 3.78, the GI50 (cell line UACC893) was 3.78 and the GI50 (cell line ZR75B) was 3.78. For the same molecule, the GI50 (cell line ZR751) was 4.01.
Work on `O=S(=O)(CC1CS1)c1ccc(Oc2ccccc2)cc1` (centres unmarked) [SB-3CT] yielded a GI50 [1] of 4.42, a GI50 (BT474 cell line, censored GI50 values) of 4.99 and a GI50 [2] of 4.59. It also gave a GI50 (HCC38 cell line, censored GI50 values) of 4.62, a GI50 [3] of 4.83 and a GI50 [4] of 4.21. It also gave a GI50 (MDAMB361 cell line, censored GI50 values) of 4.00, a GI50 (MDAMB415 cell line, censored GI50 values) of 4.00 and a GI50 [5] of 4.22. The GI50 [6] was 4.53, the GI50 (SUM159PT cell line, censored GI50 values) was 4.85 and the GI50 [7] was 4.76. It also gave a GI50 (UACC812 cell line, censored GI50 values) of 4.28, a GI50 (ZR75B cell line, censored GI50 values) of 4.62 and a GI50 [8] of 4.00. The GI50 (cell line AU565) was 4.00, the GI50 (cell line BT20) was 4.42 and the GI50 (cell line BT474) was 4.99. For the same molecule, the GI50 (cell line BT483) was 4.59, the GI50 (cell line CAMA1) was 4.00 and the GI50 (cell line HCC38) was 4.62. It also gave a GI50 (cell line HCC70) of 3.88, a GI50 (cell line HCC1143) of 4.00 and a GI50 (cell line HCC1187) of 4.83. It also gave a GI50 (cell line HCC1395) of 3.78, a GI50 (cell line HCC1419) of 3.78 and a GI50 (cell line HCC1428) of 4.18. It also gave a GI50 (cell line HCC1500) of 3.78, a GI50 (cell line HCC1806) of 4.00 and a GI50 (cell line HCC1937) of 4.00. For the same molecule, the GI50 (cell line HCC1954) was 4.00, the GI50 (cell line HCC2185) was 4.21 and the GI50 (cell line HCC3153) was 4.00. For the same molecule, the GI50 (cell line MCF7) was 4.00.
